From the supplement of paper PMC4862054

Experiments:
Assay in all cases: normalised response (% of control), CellTiter-Glo; higher = more viable cells (100 = DMSO, 0 = benzethonium chloride kill control)
Conditions in all cases: incubation time: 72 h
[1] = tested on: CAL-51
In short: (§1)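 The table gives the normalised signal for a single concentration in each entry. Breast cancer cell lines were seeded (20 µl suspension) into 384-well plates holding compound at 5 concentrations in 10-fold steps over a compound-specific 10,000-fold range and incubated 72 h, then read for CellTox Green fluorescence (485/520 nm) and CellTiter-Glo luminescence. Normalisation on each plate used 0.1 % DMSO (100) and a positive kill control (0).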

[2] = tested on: HCC1143
In short: as §1

[3] = tested on: HDQ-P1
In short: as §1

[4] = tested on: CAL-148
In short: as §1

[5] = tested on: MDA-MB-231
In short: as §1

[6] = tested on: CAL-85-1
In short: as §1

[7] = tested on: CAL-120
In short: as §1

[8] = tested on: MFM-223
In short: as §1

[9] = tested on: Hs578T
In short: as §1

[10] = tested on: MDA-MB-436
In short: as §1

[11] = tested on: MDA-MB-453
In short: as §1

[12] = tested on: DU-4475
In short: as §1

[13] = tested on: MCF-10A
In short: as §1

[14] = tested on: MDA-MB-468
In short: as §1

[15] = tested on: SK-BR-3
In short: as §1

[16] = tested on: BT-474
In short: as §1

[17] = tested on: HCC1599
In short: as §1

[18] = tested on: HCC1937
In short: as §1

[19] = tested on: BT-549
In short: as §1

Compound | normalised response [1] [%] | normalised response [2] [%] | normalised response [3] [%] | normalised response [4] [%] | normalised response [5] [%] | normalised response [6] [%] | normalised response [7] [%] | normalised response [8] [%] | normalised response [9] [%] | normalised response [10] [%] | normalised response [11] [%] | normalised response [12] [%] | normalised response [13] [%] | normalised response [14] [%] | normalised response [15] [%] | normalised response [16] [%] | normalised response [17] [%] | normalised response [18] [%] | normalised response [19] [%]
CCC(C)(C)C(=O)O[C@H]1C[C@@H](C)C=C2C=C[C@H](C)[C@H](CC[C@@H]3C[C@@H](O)CC(=O)O3)[C@H]21 [Simvastatin] (10 nM) | 115 | 98.7 | 103 | 103 | 99.2 | 96.2 | 96 | 102 | 96.3 | 98.1 | 98.3 | 104 | 108 | 103 | – | – | – | – | –
COc1cc2ncnc(Nc3ccc(F)c(Cl)c3)c2cc1NC(=O)/C=C/CN1CCCCC1 [Dacomitinib] (0.1 nM) | 71.8 | 107 | 99.8 | 109 | 102 | 97.5 | 94 | 102 | 98.5 | 102 | 99.9 | 95.3 | 101 | 101 | 99.6 | 99 | 93.7 | 104 | 102
COc1cc2nccc(Oc3ccc(NC(=O)C4(C(=O)Nc5ccc(F)cc5)CC4)cc3)c2cc1OC [Cabozantinib] (1 nM) | 122 | 99.1 | 99.3 | 95.9 | 104 | 96.1 | 100 | 102 | 102 | 96.6 | 105 | 101 | 93.5 | 102 | 101 | 97.3 | 107 | 94.4 | 98.8
C=C(c1ccc(C(=O)O)cc1)c1cc2c(cc1C)C(C)(C)CCC2(C)C [Bexarotene] (10 nM) | 137 | 101 | 106 | 106 | 100 | 107 | 101 | 107 | 97 | 100 | 101 | 101 | 99.4 | 104 | 98.8 | 99.8 | 96.3 | 94.6 | 97.1
O=C1CCC(N2C(=O)c3ccccc3C2=O)C(=O)N1 (configuration not stated) [Thalidomide] (10 nM) | 65.4 | 97.3 | 96.1 | 92.6 | 98.4 | 100 | 94.2 | 97.5 | 100 | 95.8 | 96.3 | 97.2 | 100 | 91.9 | 98.9 | 94 | 102 | 95.3 | 99.7
Clc1ccc(Nc2nnc(Cc3ccncc3)c3ccccc23)cc1 [Vatalanib] (10 nM) | 127 | 102 | 102 | 109 | 104 | 100 | 96 | 102 | 100 | 107 | 104 | 106 | 105 | 102 | – | 105 | 89.6 | 102 | 95
C#Cc1cccc(Nc2ncnc3cc(OCCOC)c(OCCOC)cc23)c1 [Erlotinib] (10 nM) | 74.3 | 106 | 91.7 | 113 | 103 | 102 | 102 | 111 | 110 | 103 | 107 | 105 | 98.8 | 105 | – | 99.9 | 101 | 96 | 97.3
COc1cc([C@@H]2c3cc4c(cc3[C@@H](O[C@@H]3O[C@@H]5CO[C@@H](C)O[C@H]5[C@H](O)[C@H]3O)[C@H]3COC(=O)[C@H]23)OCO4)cc(OC)c1O [Etoposide] (10 nM) | 98.9 | 107 | 99.3 | 106 | 105 | 102 | 103 | 109 | 104 | 106 | 109 | 104 | 113 | 98.6 | – | 103 | 99.7 | 103 | 97.8
Cc1ccc(-n2nc(C(C)(C)C)cc2NC(=O)Nc2ccc(OCCN3CCOCC3)c3ccccc23)cc1 [Doramapimod] (10 nM) | 121 | 98.3 | 95.5 | 80.3 | 96.3 | 96 | 94.5 | 89.5 | 101 | 98.1 | 85.8 | 98.3 | 90.7 | 94 | – | 93.5 | 103 | 91.7 | 99.3
O=C(O)c1ccc(-c2c[nH]c3ncc(-c4ccccc4)cc23)cc1C1CCCC1 (10 nM) | 105 | 102 | 95.9 | 90.4 | 94 | 96.3 | 95.3 | 94 | 99.6 | 95.1 | 91.8 | 99.2 | 95.9 | 96 | – | 91.8 | 108 | 101 | 98.7
CNCc1ccc(-c2[nH]c3cc(F)cc4c3c2CCNC4=O)cc1 [Rucaparib] (10 nM) | 112 | 100 | 96.8 | 82.7 | 97.2 | 98.9 | 94.2 | 93.5 | 98.5 | 99.5 | 93.9 | 98.3 | 98.4 | 92.3 | – | 93.6 | 102 | 102 | 96.9
Cn1c(Nc2ccc(C(F)(F)F)cc2)nc2cc(Oc3ccnc(-c4ncc(C(F)(F)F)[nH]4)c3)ccc21 [RAF265] (1 nM) | 111 | 109 | 100 | 112 | 98.5 | 104 | 104 | 114 | 105 | 105 | 127 | 109 | 112 | 104 | – | 106 | 102 | 103 | 96.7
CCC(C)(C)C(=O)O[C@H]1C[C@@H](C)C=C2C=C[C@H](C)[C@H](CC[C@@H]3C[C@@H](O)CC(=O)O3)[C@H]21 [Simvastatin] (1 nM) | 114 | 102 | 98.5 | 102 | 94.8 | 96.8 | 100 | – | 103 | – | 106 | 102 | 107 | 100 | 105 | – | 111 | 103 | 98.9
CN(C)/N=N/c1[nH]cnc1C(N)=O [Dacarbazine] (10 nM) | 103 | 103 | 101 | 102 | 104 | 102 | 98.3 | 104 | 105 | 101 | 111 | 101 | 101 | 106 | – | 105 | 85.9 | 96.3 | 101
CN[C@@H]1C[C@H]2O[C@@](C)([C@@H]1OC)n1c3ccccc3c3c4c(c5c6ccccc6n2c5c31)C(=O)N[C@H]4O [UCN-01] (10 nM) | 106 | 95.9 | 96.6 | 108 | 81.1 | 95.1 | 80.2 | 102 | 92.4 | 106 | 91.8 | 101 | 90.5 | 97.3 | – | 83.8 | 94 | 94.3 | 98.4
CCC1=C[C@@H]2CN(C1)Cc1c([nH]c3ccccc13)[C@@](C(=O)OC)(c1cc3c(cc1OC)N(C)[C@H]1[C@@](O)(C(=O)OC)[C@H](OC(C)=O)[C@]4(CC)C=CCN5CC[C@]31[C@@H]54)C2 [Vinorelbine] (10 nM) | 87.5 | 97.5 | 99.4 | 107 | 101 | 98.1 | 96.6 | 106 | 101 | 94.4 | 80.7 | 101 | 102 | 95.8 | – | 99.3 | 84.7 | 99.1 | 97.6
COc1cc2ncnc(Nc3ccc(F)c(Cl)c3)c2cc1NC(=O)/C=C/CN1CCCCC1 [Dacomitinib] (1 nM) | 108 | 106 | 90.7 | 112 | 101 | 91.2 | 100 | 101 | 105 | 97.8 | 93.8 | 100 | 97.7 | 103 | – | 103 | 102 | 94.3 | 99.8
CS(=O)(=O)c1ccc(C2=C(c3ccccc3)C(=O)OC2)cc1 [Rofecoxib] (10 nM) | 73 | 106 | 102 | 115 | 102 | 102 | 102 | 113 | 114 | 102 | 110 | 105 | 107 | 104 | – | 103 | 89 | 104 | 89.7
CC(C)Cn1cnc2c(N)nc3ccccc3c21 [Imiquimod] (2.5 nM) | 114 | 103 | 97.2 | 107 | 103 | 98.4 | 103 | 105 | 111 | 95.8 | 104 | 109 | 105 | 104 | – | 104 | 113 | 96.2 | 95
CN(N=O)C(=O)N[C@@H](C=O)[C@@H](O)[C@H](O)[C@H](O)CO [Streptozocin] (10 nM) | 77.4 | 105 | 102 | 108 | 104 | 98.9 | 100 | 108 | 104 | 98.1 | 106 | 106 | 105 | 114 | 102 | 109 | – | 109 | –
